The test system of assay [1] is bone marrow erythroblasts. Kind of assay: Flow cytometry of bone marrow cells / erythroblast subsets (Ter119/CD71 double staining) of treated mice. In kind it is in vivo, mouse. The following applies: CLEU 50 mg/body i.p. The protocol: Wild-type mice with a genetic background of C57BL/6J were purchased from Charles River Laboratories, Inc. Mice at 8 to 14 weeks of age were used for analysis. For CLEU treatment (50 mg/body), a solution of cycloleucine (CLEU) was prepared by diluting cycloleucine (CLEU) (Sigma) in PBS (50 mg/ml), and 1 ml of the CLEU solution was administered intraperitoneally. For AKBA treatment (2 mg/body), 2 mg AKBA (Enzo Life Sciences)/20% DMSO/1 mL PBS solution was administered intraperitoneally. Vehicle without AKBA was used as a control. For measuring complete blood count of peripheral blood, peripheral blood was collected from facial veins and counted by use of an automated animal blood cell counter (microsemi LC-662). All of the experiments conducted in this study were approved by the Animal Experiment Committee of the Environmental Safety Committee of Tohoku University.
BM cells and spleen cells were harvested in a conventional manner. Cells were stained with combinations of antibodies specific to erythroblasts and mature cells, to thereby identify them. The cells were visualized with antibody and streptavidin-peridinin chlorophyll protein-cyanin 5.5. The antibodies used in this study were as follows: anti-CD3e (145-2C11), anti-CD4 (GK1.5 or RM4.5), anti-CD8a (53-6.7), anti-Gr-1 (RB6-8C5), anti-B220 (RA3-6B2), anti-Ter-119 (TER-119), anti-CD71 (R17217 or C2). Cells were stained with […] (Sigma), and dead cells were excluded from analysis. Flow cytometric analysis and cell sorting were performed according to the manufacturer's protocol using FACS AriaII (BD), and then the obtained data were analyzed using FlowJo software (TreeStar).
Additionally, MAT inhibitor PF9366 (PF) was administered to mice and the effect thereof was investigated. Vehicle (DMSO) (control (Ctrl)) or 10 mM PF9366 (prepared at a concentration of 40 μl/40 ml water) was provided in a drinking bottle (0 h). In addition, 80 μl of vehicle (DMSO) or 80 μl of 10 mM PF9366 dissolved in 1 ml PBS was also administered intraperitoneally at 0 h and 24 h. Analysis was carried out at Day 2 (48 h).
MAT inhibitor 3-acetyl-11-keto-β-boswellic acid (AKBA; 2 mg/body) was intraperitoneally administered to mice at 0 and 24 hours, and analyzed after 48 hours.

Another assay relates to DNA CpG methylation. The assay can be described thus: Whole genome bisulfite sequencing (WGBS) of bone marrow erythroblast subset II. The following applies: CLEU, BM erythroblast subset II, Day 2, vs PBS. Format: in vivo, mouse. The protocol: DNA was isolated by using phenol/chloroform extraction from sorted sample of bone marrow subset II erythroblasts (PBS; n=2, CLEU; n=2). DNA quality control, bisulfite conversion, library preparation, high-throughput sequencing, and data mapping were performed at Macrogen, Inc. Briefly, TruSeq DNA Methylation Kit and EZ DNA Methylation Gold (Illumina and Zymo Research) were used for library preparation according to the manufacturer's protocol (TruSeq DNA Methylation Library Preparation Guide), followed by high-throughput sequencing by HiseqX (Illumina). After the sequencing run, the raw sequence reads were filtered based on quality, and the adapter sequences were trimmed off. The remaining reads are mapped to the reference genome (mm9) using BSMAP based on SOAP (Short Oligo Alignment Program). SAMBAMBA version 0.5.9 was used to remove index and PCR duplicates, and to select reads with modification. Methylation level was calculated for every single cytosine from mapping results using BSMAP version 2.87. Only cytosine positions with >=5 reads coverage were used for further analysis.
The overall transcriptional changes observed as above could be attributed to epigenetic modification changes due to the reduced abundance of intracellular SAM (Panel A of FIG. 2). […]

Structures are written as SMILES.

From patent US11554124B2, “Hematopoiesis-enhancing agent” (priority 2018, dated 2023) come the findings set out here.

`NC1(C(=O)O)CCCC1` [CLEU, cycloleucine]: in assay [1] (Day 2, Ter119/CD71 double staining), the “subset from which the increase of erythroblasts was initiated” value is listed as “initiated from subset II”. The maturation of erythroblasts result in assay [1] (Day 2, Ter119/CD71 double staining, vs PBS) is listed as “significantly up-regulated”. In addition, the “erythroid cells in BM” value in assay [1] (Day 2, flow cytometry, vs PBS) is on record as “considerable increase”. Besides, in assay [1] (femur and tibiae, Day 2, vs PBS), the BM cell counts entry is given as “significantly increased”. Besides, the “reduction of DNA CpG methylation overall” value in the assay with DNA CpG methylation was “about 2%”.
